Results from patent US4402944A, “Polysulfonate Sennoside A & B compounds and method of use” (American Cyanamid Company, priority 1982, dated 1983).
Where a name gives a salt, the structure may show the parent alone.

Tests used:
activated human C1 = assay: Test Code 026 (C1 inhibitor); assay type: biochemical; conditions: serial two fold dilution assay; higher well number indicates higher activity; protection of human C2 from C1 and C4
Procedure: (§1) An active inhibitor protects C2 from C1 and C4; (ii) Test Code 035 (C3-C9 inhibitor)-This test determines the ability of the late components of human complement (C3-C9) to lyse EAC 142 in the presence of appropriate dilutions of the test compound. An active inhibitor protects EAC 142 from lysis by human C3-C9; and (iii) Cap 50 Test-Here, appropriate amounts of the test compound are added to a pool of guinea pig serum in vitro, after which the undiluted serum capillary tube assay of U.S. Pat. No. 3,876,376 is run. The concentration of compound inhibiting 50% is reported.

[1] = tested on: late components of human complement (C3-C9); assay: Test Code 035 (C3-C9 inhibitor); assay type: biochemical; conditions: serial two fold dilution assay; higher well number indicates higher activity; protection of EAC 142 from lysis
Procedure: as §1

SMILES	026 (C1 inhibitor), activity in wells (activated human C1)	035 (C3-C9 inhibitor), activity in wells [1]
O=C(O)c1cc(OS(=O)(=O)O)c2c(c1)[C@H]([C@H]1c3cccc(O[C@@H]4O[C@H](COS(=O)(=O)O)[C@@H](OS(=O)(=O)O)[C@H](OS(=O)(=O)O)[C@H]4OS(=O)(=O)O)c3C(=O)c3c(OS(=O)(=O)O)cc(C(=O)O)cc31)c1cccc(O[C@@H]3O[C@H](COS(=O)(=O)O)[C@@H](OS(=O)(=O)O)[C@H](OS(=O)(=O)O)[C@H]3OS(=O)(=O)O)c1C2=O (relative stereo) [(R*,S*)-5,5'-Bis-(β-D-glucopyranosyloxy)-9,9',10,10'-tetrahydro-4,4'-dihydroxy-10,10'-dioxo-[9,9'-bianthracene]-2,2'-dicarboxylic acid, decakis (H-sulfate), decasodium salt]	7 wells	1 wells
O=C(O)c1cc(OS(=O)(=O)O)c2c(c1)C(C1c3cccc(OC4OC(COS(=O)(=O)O)C(OS(=O)(=O)O)C(OS(=O)(=O)O)C4OS(=O)(=O)O)c3C(=O)c3c(OS(=O)(=O)O)cc(C(=O)O)cc31)c1cccc(OC3OC(COS(=O)(=O)O)C(OS(=O)(=O)O)C(OS(=O)(=O)O)C3OS(=O)(=O)O)c1C2=O [(R*,R*)-5,5'-Bis-(β-D-glucopyranosyloxy)-9,9',10,10'-tetrahydro-4,4'-dihydroxy-10,10'-dioxo-[9,9'-bianthracene]-2,2'-dicarboxylic acid, decakis (H-sulfate), decasodium salt]	8 wells	2 wells
